Laboratory results published in US11578321B2, “Recombinant HBV reporter system” (Helmholtz Zentrum München Deutsches Forschungszentrum für …, priority 2018, dated 2023).

How the values were obtained:
rHBV-CreN [1] = experiment: Detection of Cre-lox recombination by PCR in rHBV-CreN infected CreC/CIR cells; type: cell-based, hepatitis B virus; settings: rHBV-CreN infected CreC/CIR cells treated with MyrB
Experimental: (§1) HepG2-NTCP-CreC/CIR cells were seeded on collagen-coated plates with a density of 1.34×10^3 cells/mm^2 and cultured in DMEM containing 2.5% dimethylsulfoxide (DMSO) for 2 days prior to infection. The inoculum was prepared by diluting the virus in DMEM containing 2.5% DMSO and 4% PEG8000. For blocking rHBV entry, Myrcludex B (200 nM) was added to the rHBV inoculum (Li and Urban, 2016, Cancer research 42, 3858-3863). The cells were inoculated for 24 hours and maintained in DMEM containing 2.5% DMSO for indicated time according to the experimental set-ups.
Genomic DNA of the cells was isolated using NucleoSpin® Tissue Kit (Macherey-Nagel, 740952.250). The Cre-lox recombination was analyzed by PCR using primers flanking the neomycin sequence (forward, 5′-[…]-3′ (SEQ ID NO: 29) and reverse, 5′-GGTACCGTCGACTGCAGAT-3′ (SEQ ID NO: 30)). The PCR was performed with 250 ng of genomic DNA and Phusion® Hot Start Flex DNA Polymerase (New England Biolabs, M0535S). The reaction required the following conditions: 1 cycle of denaturation at 98° C. for 30 seconds, 35 cycles of amplification (98° C. for 10 seconds, 61° C. for 30 seconds, 72° C. for 45 seconds), and 1 cycle of extension at 72° C. for 1 minute. The PCR products were examined by agarose gel electrophoresis.

rHBV-CreN [2] = experiment: Western blot of Co-InCre reconstitution and core protein in rHBV-CreN infected CreC/CIR cells; type: cell-based, hepatitis B virus; settings: rHBV-CreN infected CreC/CIR cells treated with MyrB
Experimental: as §1
Cellular proteins were isolated using RIPA buffer (Pierce, 89900) containing a protease inhibitor cocktail (Roche, 11836153001). The proteins were separated by 12% Sodium dodecyl sulphate-polyacrylamide gel electrophoresis (SDS-PAGE) and subsequently transferred onto a polyvinylidene difluoride (PVDF) membrane (Bio-Rad, 162-0177). The blotted membrane was blocked with 5% milk-TBST (20 mM Tris-HCl, pH7.4, 140 mM NaCl, 1% Tween 20). The antibodies were diluted in 1.5% milk-TBST. For core protein detection, an in-house hybridoma supernatant (8C9) was used in a 1:1 dilution. For Co-InCre detection, an anti-Cre antibody (Merck, 69050) was used in a 1:1000 dilution. […]-Actin (1:5000; Sigma, A5441) was used as a reference protein. […] The chemiluminescent signal was detected by Intas ECL ChemoCam.

rHBV-CreN [3] = experiment: rHBV-CreN infection of CreC/CIR reporter cells with entry inhibitor, DsRed-positive cells by flow cytometry; type: cell-based, hepatitis B virus
Experimental: as §1, with “For blocking rHBV entry, Myrcludex B (200 nM) was added to the rHBV inoculum (Li and Urban, 2016, Cancer research 42, 3858-3863).” left out
(§2) Cells were collected from 24-well plates using trypsin-versene at a 1:1 ratio (Gibco, 15400-054 and 15040-033). Cell pellets were resuspended in 1 ml of FACS buffer (PBS containing 1% BSA and 0.5 mM EDTA) and incubated with LIVE/DEAD™ Fixable Near-Infrared dead cell stain kit (Invitrogen, L10119). The samples were subjected to CytoFLEX S (Beckman Coulter) and the obtained data was analyzed by FlowJo software (v10, FlowJo LLC.).

rHBV-CreN [4] = experiment: HBeAg ELISA of supernatant of rHBV-CreN infected CreC/CIR cells; type: cell-based, hepatitis B virus; settings: rHBV-CreN MOI=250 with MyrB, day 7 post-infection
Experimental: as §1
The amount of HBeAg in cell-derived supernatants was measured using a commercial qualitative immunoassay—Enzygnost HBe monoclonal (Siemens, OQDM11) and automated BEP III system (Siemens Healthcare).

[5] = test system: rHBV-CreN infected HepG2-NTCP-CreC/CIR cells; experiment: Negative selection of rHBV-CreN infected cells with Neomycin, flow cytometry; type: cell-based, human; settings: Neomycin 2 mg/ml for 30 days
Experimental: as §2

Myrcludex-B [MyrB]
0.2-kb band (ΔNeo) PCR product (rHBV-CreN [1]): absent
Co-InCre detection (Western blot) (rHBV-CreN [2]): not detected
core protein detection (Western blot) (rHBV-CreN [2]): not detected
number of DsRed-positive cells (rHBV-CreN [3]; CreC/CIR cells, rHBV-CreN MOI=250, MyrB added to the inoculum, day 7 post-infection, FACS): less than 1%
percentage of DsRed-positive cells (rHBV-CreN [3]; HepG2-NTCP-CreC/CIR cells, rHBV-CreN MOI=300 virions/cell, Myrcludex B 200 nM, 10 days post infection, flow cytometry): less than 1%
HBeAg level (rHBV-CreN [4]): comparable to that of the mock sample

Neomycin
reduction of the number of DsRed-positive cells compared to untreated group [5]: 3.6 fold
